In patent US10213409B2, “Substituted benzofurans, benzothiophenes, benzoselenophenes and indoles and their use as tubulin polymerisation inhibitors” (Bionomics Limited, priority 2006, dated 2019):
pIC50: −log10 of the molar value.

Assays:
MCF-7 = experiment: Growth inhibition, Sulforhodamine B (SRB) or Systmex cell counting (CC) assay, MCF-7; type: cell-based; conditions: Homo sapiens, MCF7, concentration required to inhibit net cell growth by 50%, read-out: Cancer cell line IC50
[1] = system: Human umbilical vein endothelial cells (HUVECs), tumour type activated (Tum); experiment: Proliferation Assay - Activated Endothelium (MTT); type: cell-based
Method: Proliferation Assay—Activated Endothelium:
(§1) Cells were cultured overnight at 37° C. 5% CO2. Medium was subsequently replaced with fresh medium including the compound or negative control. Cells were cultured for a period of 48 hrs. An MTT assay was performed to measure changes in cell numbers. Briefly, 20 μl of MTT reagent was added to cells containing 100 μl of EGM2 and incubated at 37° C. for 2 hours.

[2] = system: Human umbilical vein endothelial cells (HUVECs), normal quiescent type (Norm); experiment: Proliferation Assay - Quiescent Endothelium (MTT); type: cell-based; conditions: HUVEC
Method: Proliferation Assay—Quiescent Endothelium:
as §1, with “EBM2+0.5% FBS” for “EGM2”

tubulin = experiment: Tubulin Polymerisation Assay (fluorescent-based kit); type: biochemical; conditions: compared with CA4 (1), FIG. 3
Method: Tubulin Polymerisation Assay:
Tubulin polymerisation inhibition assays were performed using a fluorescent-based detection kit (#BK011, Cytoskeleton) according to the instructions of the manufacturer. The test compound was added to a 2 mg/ml tubulin solution containing 20% glycerol and 1 mM GTP in 1× Buffer 1 (Buffer 1: 80 mM Piperazine-N,N′-bis[2-ethanesulfonic acid] sequisodium salt; 2 mM magnesium chloride; 0.5 mM Ethylene glycol-bis(b-amino-ethyl ether)N,N,N′,N′-tetra-acetic acid, pH 6.9, 10 uM fluorescent reporter). Fluorescence was measured over a period of 42 minutes at 1 minute intervals. Increased fluorescence indicates increase in tubulin polymerisation. There is a ten-fold increase in the affinity of the fluorescent reporter for polymerised tubulin compared to monomeric tubulin subunits. The result is a fluorescence signal that closely follows tubulin polymerisation.

[3] = system: MDA MB 231 orthotopic xenografts; experiment: Vascular Disruption Assay (tumor perfusion, Hoechst 33342); type: in vivo, BALB/c-nu/nu mice; conditions: compared with CA4 / CA4P, FIG. 4; i.v., 24 hours after injection
Source text: Vascular Disruption Assay:
Female athymic BALB/c-nu/nu mice (nude mice) were used for this study. Mice were between 6-8 weeks old and were purchased from the Animal Resource Centre, Perth, Western Australia and allowed to acclimatize for a couple of days. All the animals were housed under pathogen-free conditions and cared for in accordance with Flinders University of South Australia and NH&MRC guidelines and the Australian Code of Practice for the care and use of animals for scientific purposes. The human breast cancer MDA MB 231 was grown as orthotopic xenografts in the mammary fat pad of nude mice. Each mouse was injected with 2×10^6 cells in 50 μl Dulbecco's PBS subcutaneously just above the mammary fat pad, below the right forward limb. Tumors were selected for treatment when they reached a diameter of […] (3 weeks after implantation). The test compound (Example 29) was dissolved in saline solution and injected intravenously at concentrations ranging from 150 mg/kg-1 mg/kg in a total volume of 400 ul. […] Non-tumor regions were mapped on Hoechst 33342 composite images and excluded from the quantitation analysis. Quantitation was performed by measuring the pixel area of Hoechst 33342 staining and the total pixel area of the tumor region. Perfusion was expressed as a percentage of Hoechst 33342 stained area to total tumor area (see FIG. 4).

[4] = system: MDA-MB-231 solid orthotopic tumors; experiment: Tumor Growth Inhibition; type: in vivo, Balb/c nu/nu mice; conditions: 40 mg/kg i.v., two cycles, 72 days; vs vehicle, significant from day 4 (p<0.001) to Day 70, FIG. 5
Method: Balb/c nu/nu mice bearing MDA-MB-231 solid orthotopic tumors were treated with compound Example 29 at 40 mg/kg. Animals were i.v. dosed with a total of two cycles of Example 29 treatment. Each cycle was dosing on […] followed by a three week no-dosing period. Tumor growth represented as a ratio to initial tumor volume is shown over a total of 72-days.
Tumor growth as well as animal health were monitored for up to 72 days post-day 1 of treatment. […] Significant differences in tumor growth between Example 29 treated (n=64) and vehicle treated (n=20) animals were observed as early as day 4 (p<0.001; unpaired t-test; Prism® analysis) through to Day 70.

pIC50 (MCF-7)	SMILES	pIC50 ([1]; Homo sapiens, HUVEC, tumour type activated endothelial cells)	potency towards activated (tumour) versus quiescent (normal) endothelial cells ([1]; comparison of activated and quiescent HUVEC assays, FIGS. 1 and 2, Table 1)	pIC50 [2]	potency in inhibiting tubulin polymerisation (tubulin)	potency at shutting-down tumour vasculature (reduction in tumour perfusion) [3]	tumor growth (ratio to initial tumor volume) [4]
8.70	COc1cc(C(=O)c2c(C)oc3c(O)c(OC)ccc23)cc(OC)c1OC [Example 11, 2-Methyl-7-hydroxy-3-(3,4,5-trimethoxybenzoyl)-6-methoxybenzofuran]	9.00 to 10.00	higher potency towards tumour endothelial cells (activated) over normal endothelial cells (quiescent)	7.00 to 8.00	significantly greater potency than CA4 (1)	–	–
–	COc1cc(C(=O)c2c(C)oc3c(OP(=O)([O-])[O-])c(OC)ccc23)cc(OC)c1OC.[Na+].[Na+] [Example 29, Disodium 6-methoxy-2-methyl-3-(3,4,5-trimethoxybenzoyl)benzofuran-7-yl phosphate]	–	–	–	–	significantly greater potency than CA4 (1)	tumor growth inhibition
